Tests used:
[1] = biological target: T1, human serum albumin (HSA) (Homo sapiens, UniProt P02768); assay: Fluorescence quenching of HSA with addition of extra anions (KClO4, KNO3); type: binding; settings: for K SV / K, binding constant / n, number of binding sites: HSA 5 µM
T1 construct: I (residues 1–195), II (196–383), and III (384–585); purchased Sigma
Method: (§1) The samples of HSA were prepared in 20 mM phosphate buffer (pH 7.4), whereas silver complexes (1 mM) stock solution were prepared in DMSO and further diluted in 20 mM phosphate buffer to reach the desired concentration. In all the samples, the final concentration of DMSO was not more than 1%. The concentration of HSA was determined using the Beer–Lambert law with the molar extinction coefficient of 36500 M^−1·cm^−1 at 280 nm. To study structural changes in HSA by the addition of [Ag(I)(Hnor)2](anion) compounds, the UV absorption spectra were measured, by variation of the concentration of the [Ag(I)(Hnor)2](anion) compounds, while keeping the concentration of HSA constant. UV absorption spectra, from 240 nm to 320 nm, were recorded on a Perkin–Elmer Lambda 45 spectrophotometer at 25°C. Quartz cuvettes of 1 cm path length were used for the measurements. Fluorescence measurements were performed on a Hitachi spectrofluorometer (Model F 7000) equipped with a PC. The fluorescence spectra were collected at 25°C with a path length cell of 1 cm. The slit width used was 5 nm with a protein concentration of 5 µM. The used excitation wavelength for the protein was 295 nm.
Given the fact that the highest anticancer activity and also the most substantial HSA interaction takes place in case of the perchlorate and nitrate salts, it was decided to add extra perchlorate (and also nitrate) for all cases and to study the effect on the binding affinity. So, we carried out two sets of experiments and studied the binding propensity of Ag(I) compounds with HSA. In one experiment, the extra ClO4 ^− anion was added in a 1 : 4 ratio, compared to the Ag compound. In a second experiment, we used additional nitrate together with the Ag(I) compounds. Details are given in Figures 6 and 7, and the quite similar details for the other 3 compounds are presented in Figures S5 and S6 in Supplementary Materials.
To determine the role of only the anions (i.e., without Ag and Hnor), we also used KClO4 and KNO3 and studied their HSA binding by adding variable amounts of anions to the concentration maximum used in the experiments. […] When the extra anions + compounds were titrated, the results obtained did show an exponential increase in binding affinity of the Ag(I) compounds.
The binding strength was evaluated by calculating the Stern–Volmer constant (K sv), a number of the binding sites (n) and Gibbs free energy (ΔG); (Table 2). […] However, no correlation with the size of these four anions is seen.

[2] = biological target: T1, human serum albumin (HSA); assay: UV absorption spectra of HSA with Ag(I) compounds; type: binding; settings: HSA 5 µM, with hyperchromism
Method: as §1
(§2) All the spectra were recorded after equilibration of the reaction mixture for 5 min.

[3] = biological target: T1, human serum albumin (HSA); assay: Fluorescence quenching titration of HSA (Stern–Volmer analysis); type: binding
Method: as §1, §2
The interaction between metal compounds and proteins has been widely investigated by using fluorescence spectroscopies. The luminescence response of HSA, upon addition of different concentrations of Ag(I) compounds, was studied in 20 mM phosphate buffer by using an emission titration experiment. Preliminary luminescence studies of the four starting Ag compounds 1–4 have been reported earlier by some of us. The excitation at 290 nm for all four compound results in a strong luminescence band at around 370 nm. The fluorescence studies of the ligand “Hnor” as well as the free silver salt, “AgNO3,” were also studied under the same conditions to compare the effect of separate entities with a combination of the two. Upon excitation at 295 nm, fluorescence intensity around 340 nm is known to reflect the changes of the tryptophan residue microenvironment. […] In Figure S3, similar data are presented for compounds 2–4, with only marginal differences upon anion variation.
The interaction of the Ag compounds with HSA was quantified; the Stern–Volmer equation has been employed:(1) F0/F=1+KSVQ=1+Kqτ0Q, where F 0 and F are the steady-state fluorescence intensities in the absence and presence of quencher at 340 nm, respectively. K sv is the Stern–Volmer quenching constant, K q stands for bimolecular quenching constant, τ 0 is the lifetime of the fluorophore in the absence of quencher, and [Q] is the concentration of quencher (i.e., the Ag compound). By calculating the quenching rate constants, K q, one can distinguish between the static quenching and the dynamic quenching, and this was evaluated by using the following equation:(2) Kq=KSV/τ0.
The value of tau(zero), τ 0, for biopolymers is known to be 10^−8 s. The Stern–Volmer quenching constant (K sv) for the fluorometric titration of the Ag(I) compounds into HSA solution was calculated from the linear relationship between F 0/F and [Ag(I)(Hnor)2]ClO4 (Figure 5) and enlisted in Table 1. In Figure S4, similar data are presented for compounds 2–4, confirming the above observations.
The equilibrium between free and bound molecules, when small molecules bind independently to a set of similar sites on a macromolecule, was ascertained by a modified Stern–Volmer equation [42]:(3) logF0−F/F=logK+n logQ, where K and n are the binding constant and the number of binding sites, respectively. A plot of log(F 0 − F/F) versus log[Q] was used to determine the value of K and n (inset in Figure 5). Several forces, like electrostatic, hydrogen bonds, weak van der Waals, hydrophobic, and steric contacts, can be thought of being responsible for the interaction between the albumin and Ag compounds. […]

[4] = biological target: T1, human serum albumin (HSA); assay: Far-UV circular dichroism of HSA, α-helix content; type: binding; parameters: unit of the concentration uncertain; settings: HSA 20 µM, free HSA 67.03
Method: CD measurements were carried out on a Jasco spectropolarimeter (Model J-815) equipped with a microcomputer. The instrument was calibrated with D-10-camphorsulfonic acid. All the CD measurements were performed at 25°C with a thermostatically controlled cell holder, attached to a Neslab RTE-110 water bath with an accuracy of ±0.1°C. Spectra were collected with a scan speed of […] and a response time of 1 s. Each spectrum was taken as the average of three scans. The far-UV CD spectra were measured at a protein concentration of 20 µM at a path length of 1 cm.
as §2
The CD signal, expressed in millidegree, obtained over the wavelength range of 190–250 nm, was converted to a mean residue ellipticity (MRE, θ), using the following conversion:(5) MRE=θobs mdeg/10×n×Cp×l, where θ obs is the CD in millidegree, the number of amino acid residues (585) is given by n, “l” is the path length (cm), and C p is the molarity. The unit of MRE is deg·cm^2·dmol^−1.

[5] = tested on: two different cancer cell lines; parameters: method as in PMID 25042730; settings: previous study; cited from earlier work
[6] = Set A: +extra ClO4− (KClO4, 1:4 ratio)
[7] = Set B: +extra NO3− (KNO3, 1:4 ratio)
[8] = modified Stern–Volmer equation, HSA 5 µM, pH 7.4, 25°C

T1 sequence (P02768 25-609): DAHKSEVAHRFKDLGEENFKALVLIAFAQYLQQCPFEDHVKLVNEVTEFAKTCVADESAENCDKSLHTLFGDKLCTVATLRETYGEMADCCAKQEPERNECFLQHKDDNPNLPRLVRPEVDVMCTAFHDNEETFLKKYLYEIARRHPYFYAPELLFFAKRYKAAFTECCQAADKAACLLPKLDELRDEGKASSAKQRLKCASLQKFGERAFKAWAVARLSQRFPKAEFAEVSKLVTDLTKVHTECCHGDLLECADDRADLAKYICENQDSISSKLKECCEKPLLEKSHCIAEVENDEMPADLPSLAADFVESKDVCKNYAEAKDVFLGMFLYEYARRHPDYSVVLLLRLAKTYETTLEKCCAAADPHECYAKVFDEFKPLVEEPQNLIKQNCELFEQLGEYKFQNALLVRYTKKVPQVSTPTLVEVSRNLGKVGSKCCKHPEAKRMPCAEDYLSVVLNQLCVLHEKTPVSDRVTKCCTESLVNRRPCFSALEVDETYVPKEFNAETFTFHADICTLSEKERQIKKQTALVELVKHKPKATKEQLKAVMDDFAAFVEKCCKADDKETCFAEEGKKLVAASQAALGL

[Ag+].[O-][Cl+3]([O-])([O-])[O-].c1ccc2c(c1)[nH]c1cnccc12.c1ccc2c(c1)[nH]c1cnccc12 [Compound 1, [Ag(Hnor)2](ClO4)]
∆G [1, 6]: -15.33 kcal/mol
K SV [1, 6]: 2.21 10^7 M^−1
K, binding constant [1, 6]: 17.2 10^10 M^−1
n, number of binding sites [1, 6]: 1.77
∆G [1, 7]: -14.4 kcal/mol
K SV [1, 7]: 2.06 10^7 M^−1
K, binding constant [1, 7]: 3.64 10^10 M^−1
n, number of binding sites [1, 7]: 1.64
redshift (bathochromic effect) of HSA UV absorbance [2]: 7 nm
K SV, Stern–Volmer quenching constant ([3]; HSA 5 µM, 20 mM phosphate buffer pH 7.4, 25°C, excitation 295 nm): 5.37 10^5 M^−1
redshift at the maximal emission wavelength of Tyr and Trp residues of HSA ([3]; HSA 5 µM, increasing compound concentration): 7 nm
K q, bimolecular quenching rate constant ([3]; Kq = KSV/τ0, τ0 = 10^−8 s, HSA 5 µM, 25°C): 53.7 10^12 M^−1·s^−1
K, binding constant [3, 8]: 3.74 10^6 M^−1
n, number of binding sites [3, 8]: 1.1
∆G, standard free energy change of binding ([3]; ΔG = −2.303 RT logK): -8.963 kcal/mol
% α-helix of HSA ([4]; compound concentration 20 (unit uncertain)): 64.07%
% α-helix of HSA ([4]; compound concentration 40 (unit uncertain)): 62.23%
% α-helix of HSA ([4]; compound concentration 60 (unit uncertain)): 58.59%
% α-helix of HSA ([4]; compound concentration 80 (unit uncertain)): 50.18%
% α-helix of HSA ([4]; compound concentration 100 (unit uncertain)): 35.63%
anticancer activity [5]: comparable to cisplatin
